Laboratory results reported in patent US20080214518A1, “Pharmaceutical Composition Comprising an Anti-Bacterial Agent and an Active Ingredient Selected From Carveol, Thymol, Eugenol, Borneol and Carvacrol” (priority 2005, published 2008).
Where two headings read alike, the source gives them in different places.

Columns and labels:
Format in all cases: cell-based
[1] = test system: Staphylococcus epidermidis; experiment: Static tests to determine MIC and MBC
Experimental: (§1) The experiment was carried out with several Gram-negative and Gram-positive bacterial strains with different susceptibilities isolated in the hospital environment.
Antibacterial pharmaceutical compositions according to the invention were prepared by mixing amoxicillin at different concentrations with carveol at a sub-inhibitory concentration of 0.3 g per liter of solution or excipient (equivalent to 0.3 mg/ml). The minimal concentration of amoxicillin in combination with carveol 0.3 mg/ml that produced a bactericidal effect was determined. In each case, antibiotic activity was determined either with amoxicillin alone, or with carveol alone, or with the composition of the invention. […]

Bacillus subtilis = experiment: Static tests to determine MIC and MBC
Experimental: as §1
(§2) Antibacterial pharmaceutical compositions according to the invention were prepared by mixing amoxicillin at different concentrations with carveol at a sub-inhibitory concentration of 0.3 g per liter of solution or excipient (equivalent to 0.3 mg/ml). The minimal concentration of amoxicillin in combination with carveol 0.3 mg/ml that produced a bactericidal effect was determined. In each case, antibiotic activity was determined either with amoxicillin alone, or with carveol alone, or with the composition of the invention.
(§3) The experiment was carried out with several resistant bacterial strains isolated in the hospital environment. The antibiotic used was ampicillin, from the beta-lactam family, which is one of the most widely used antibiotics. An antibiotic pharmaceutical composition according to the invention was prepared by mixing ampicillin at different concentrations with carveol at a sub-inhibitory concentration of 0.3 g per liter of solution or excipient. This pharmaceutical composition of the invention was named Ampi-P, for potentiated ampicillin. In each case, antibiotic activity was determined either with ampicillin alone, or with carveol alone, or with the composition of the invention.
(§4) The experiment was carried out with several resistant bacterial strains isolated in the hospital environment. The antibiotic used was cephazolin, from the cephalosporin family, another class of beta-lactams which are among the most widely used antibiotics. An antibiotic pharmaceutical composition according to the invention was prepared by mixing cephazolin at different concentrations with alpha-ionone and beta-ionone at a sub-inhibitory concentration of 0.3 g per liter of solution or excipient. This pharmaceutical composition of the invention was named Cepha-P, for potentiated cephazolin. In each case, antibiotic activity was determined either with cephazolin alone, or with alpha-ionone or beta-ionone alone, or with the composition of the invention.
as §3, with “polymyxin B,” for “ampicillin,”, “peptide” for “beta-lactam”, “oldest” for “most widely used”, “polymyxin B” for “ampicillin”, “Polymix-P,” for “Ampi-P,”, “polymyxin B.” for “ampicillin.”
as §3, with “chloramphenicol,” for “ampicillin,”, “phenicol” for “beta-lactam”, “oldest” for “most widely used”, “chloramphenicol” for “ampicillin”, “Chloram-P,” for “Ampi-P,”, “chloramphenicol.” for “ampicillin.”
(§5) The experiment was carried out with several resistant bacterial strains isolated in the hospital environment. The antibiotic used was chlortetracycline, one of the oldest antibiotics. An antibiotic pharmaceutical composition according to the invention was prepared by mixing chlortetracycline at different concentrations with carveol at a sub-inhibitory concentration of 0.3 g per liter of solution or excipient.

Escherichia coli = experiment: Static tests to determine MIC and MBC
Experimental: as §1, §2, §3, §4
as §3, with “polymyxin B,” for “ampicillin,”, “peptide” for “beta-lactam”, “oldest” for “most widely used”, “polymyxin B” for “ampicillin”, “Polymix-P,” for “Ampi-P,”, “polymyxin B.” for “ampicillin.”
as §3, with “chloramphenicol,” for “ampicillin,”, “phenicol” for “beta-lactam”, “oldest” for “most widely used”, “chloramphenicol” for “ampicillin”, “Chloram-P,” for “Ampi-P,”, “chloramphenicol.” for “ampicillin.”
as §5

Salmonella typhimurium = experiment: Static tests to determine MIC and MBC
Experimental: as §1, §2, §3, §4
as §3, with “polymyxin B,” for “ampicillin,”, “peptide” for “beta-lactam”, “oldest” for “most widely used”, “polymyxin B” for “ampicillin”, “Polymix-P,” for “Ampi-P,”, “polymyxin B.” for “ampicillin.”
as §3, with “chloramphenicol,” for “ampicillin,”, “phenicol” for “beta-lactam”, “oldest” for “most widely used”, “chloramphenicol” for “ampicillin”, “Chloram-P,” for “Ampi-P,”, “chloramphenicol.” for “ampicillin.”
as §5

Klebsiella pneumoniae = experiment: Static tests to determine MBC; conditions: carveol alone, Table 1
Experimental: as §1, §2

Staphylococcus aureus = experiment: Static tests to determine MIC and MBC; conditions: carveol alone
Experimental: as §1, §2
(§6) The experiment was carried out with several resistant bacterial strains isolated in the hospital environment. The antibiotic used was chlortetracycline, one of the oldest antibiotics. An antibiotic pharmaceutical composition according to the invention was prepared by mixing chlortetracycline at different concentrations with carveol at a sub-inhibitory concentration of 0.3 g per liter of solution or excipient. […] In each case, antibiotic activity was determined either with chlortetracycline alone, or with carveol alone, or with the composition of the invention.
as §6, with “streptomycin, an important member” for “chlortetracycline, one”, “aminoside family which is among the most important” for “oldest”, “streptomycin” for “chlortetracycline”
as §6, with “erythromycin, an important member” for “chlortetracycline, one”, “macrolide family which is among the most important” for “oldest”, “erythromycin” for “chlortetracycline”

[2] = first substance alone, exponential growth phase

Measured: MBC

C=C(C)C1CC=C(C)C(O)C1 (mixture of isomers) [Carveol, carveol]
2000 µg/mL: [1]; Staphylococcus epidermidis, carveol alone, Table 1, read-out: MBC | [1]; [2] | Bacillus subtilis; Bacillus subtilis, carveol alone, Table 1, read-out: MBC | Bacillus subtilis; [2] | Escherichia coli; Escherichia coli, carveol alone, Table 1, read-out: MBC | Escherichia coli; [2] | Salmonella typhimurium; Salmonella enterica, TYPHIMURIUM, carveol alone, Table 1, read-out: MBC | Salmonella typhimurium; [2] | Klebsiella pneumoniae | Staphylococcus aureus; Staphylococcus aureus, Table 1, read-out: MBC | Staphylococcus aureus; exponential growth phase
